According to patent US3955959A, “Herbicide for use in transplanted rice” (priority 1974, dated 1976):
Where “and” joins values, the source holds several entries; their conditions need not be identical. Equal entries are not always repeated.

Experiments:
transplanted rice = assay: Example 1 field test, rice yield; assay type: in vivo, rice (Watanabe variety)
Excerpt: (§1) In the field test 48 day-old seedlings (Watanabe variety) were transplanted to plots 2.5 × 6 m. seeded with the weed seeds indicated in Table 1. At 5 and 10 DAT periods, the herbicides were applied to the plants (now at the 1.2 and 2.0 leaf stage, respectively, of grass weed) at the indicated rate in kilograms per hectare (kg/ha). The weed control and rice injury results for 3 replications are reported in percentages as of the indicated times of observation. The percentages given in the "Perennials" column are based on the weight of the weeds at 63 DAT, i.e., 42 gms/3.6 m^2 for the weedy check.

Ce (Cyperus esculentus) = assay: Example 7 greenhouse preemergence activity; assay type: in vivo
Procedure: In a further comparative study of the preemergence activity of Herbicides A and B, a variety of weeds and upland direct-seeded rice were tested under greenhouse conditions. The present invention is not concerned with the use of Herbicide A in direct-seeded rice. The primary purpose of the experimental work in this example is to compare relative herbicidal activity of Herbicides A and B against the weeds shown in Table 7; most of these weeds were not available for tests with transplanted rice. Although the relative selectivity of these herbicides in upland rice is also evident, that aspect of the tests is more or less incidental to the purpose of this example.
In this example, rice seeds and seeds of the weeds shown in Table 7 were sown in Ray silt loam soil at a depth of 0.5 inch (1.27 cm) in containers for the soil in a greenhouse. Herbicides A and B were applied to the surface of the soil at a spray volume equivalent to 20 gals/acre (187.1 liters/hectare), followed by 0.5 in (1.27 cm) of overhead irrigation. Temperature and relative humidity in the greenhouse were on the order of 85°F (29°C) and 75%, respectively. Observations were made at 21-28 days after seeding.
In Table 7 are shown the average rates of herbicide required to cause a growth reduction of 85% of the weeds ("GR85 "), and the average rate of herbicide required to cause a growth reduction of 15% ("GR15 ") of the rice plants (Oryza sativa, "Os", variety Bluebelle).

Aj (Aneiliema japonica) = assay: Example 1 field test, weed control in transplanted rice, Iri, Korea; assay type: in vivo; settings: av. of 36 and 63 DAT
Excerpt: as §1

Ci (Cyperus iria) = assay: as above; assay type: in vivo; settings: av. of 36 and 63 DAT
Excerpt: as §1

[1] = test system: weeds Ec, Ann. Cyp, Mv, Obw, Ea; assay: Example 5 field test, average weed control, JAAPR, Japan
Procedure: (§2) In the tests described in the tables below, the herbicides were formulated and used in granular form in conventional manner. […] The commercial herbicide used was a granular product having 5% active ingredient.
(§3) In the field tests of the herbicide of this invention with transplanted rice, the rice seedlings were grown in conventional manner, by seeding the rice in a typical seedbed of sandy loam to clay soil of the country wherein the test was conducted. For laboratory and greenhouse work the seedlings were obtained by seeding rice in a mixture of soil, e.g., Ray silt loam, and peat in wood flats. For purposes of testing the herbicides on younger rice seedlings (infant or Dapog) the rice was usually allowed to grow for 6-15 days before lifting for transplanting. Older (ordinary) rice plants were usually grown for a period of about 2-3 weeks, or as much as about 7 weeks before lifting. Since the period of growth is dependent upon climatic conditions, a better measure of when to transplant the rice seedling is the leaf stage of growth; for infant or Dapog rice the seedling is lifted at the 1.5-2 leaf stage of growth, and for ordinary seedlings at the 2.5-5 leaf stage. The seedlings were then transplanted to the test plots for evaluation of the herbicide for injury against weed species present with the transplanted rice. The herbicides were then applied to the growth medium of the weeds and transplant rice, either preemergent or postemergent with respect to the weeds and postemergent with respect to the transplanted rice. Application times are designated in the tables as "DAT", meaning "days after transplant". Application rates given in the tables refer to the amount of active ingredient used.
(§4) The rice seedlings were grown to the 1.7 leaf stage for infant seedlings and to the 5.5 leaf stage for ordinary seedlings. Two days after puddling the soil in which the seedlings were to be transplanted, both infant and ordinary seedlings were transplanted into plots 8.5 m^2.
(§5) The weed symbol "Obw" represents "other broadleaf weeds" of unspecified identity. Results presented in Table 5 represent the average of 2 replications.

[2] = test system: transplanted rice (ordinary and infant seedlings); assay: Example 5 field test, rice yield; assay type: in vivo
Procedure: as §2, §3, §4, §5

[3] = test system: ordinary transplanted rice; assay: Example 4 field test, crop injury; settings: obs. 36 DAT
Procedure: as §2, §3
In this example comparative field tests were conducted with Herbicides A and B on ordinary transplanted rice at Munoz, Philippines.
Twenty-one (21) day-old ordinary wet bed seedlings of the Fortuna variety were transplanted to field plots and Herbicides A and B applied at 5 DAT and 14 DAT. The field plots were overseeded with barnyardgrass (E. crusgalli) at 2 kgs/ha. Treatments were replicated four times.

Echinochloa crusgalli = assay: Example 2 field test, weed control, Chia Yi, Taiwan; assay type: in vivo; settings: obs. 63 DAT
Procedure: (§6) In the field tests of the herbicide of this invention with transplanted rice, the rice seedlings were grown in conventional manner, by seeding the rice in a typical seedbed of sandy loam to clay soil of the country wherein the test was conducted. For laboratory and greenhouse work the seedlings were obtained by seeding rice in a mixture of soil, e.g., Ray silt loam, and peat in wood flats. For purposes of testing the herbicides on younger rice seedlings (infant or Dapog) the rice was usually allowed to grow for 6-15 days before lifting for transplanting. Older (ordinary) rice plants were usually grown for a period of about 2-3 weeks, or as much as about 7 weeks before lifting. Since the period of growth is dependent upon climatic conditions, a better measure of when to transplant the rice seedling is the leaf stage of growth; for infant or Dapog rice the seedling is lifted at the 1.5-2 leaf stage of growth, and for ordinary seedlings at the 2.5-5 leaf stage. The seedlings were then transplanted to the test plots for evaluation of the herbicide for injury against weed species present with the transplanted rice. The herbicides were then applied to the growth medium of the weeds and transplant rice, either preemergent or postemergent with respect to the weeds and postemergent with respect to the transplanted rice. […] Application rates given in the tables refer to the amount of active ingredient used.
(§7) Rice seedlings (ordinary) of Tainan No. 5 variety (japonica) were transplanted at 19 days of growth. Granular formulations of Herbicides A and B were applied at the 1 leaf stage of grass weed (4 DAT) and 2.5 leaf stage of grass weed (10 DAT).

Cyperus difformis = assay: as above; assay type: in vivo; settings: obs. 63 DAT
Procedure: as §6, §7

[4] = 1.5 kg/ha, 7 DAT, infant seedlings
[5] = 1.5 kg/ha, 7 DAT, ordinary seedlings

## CCCCOCN(C(=O)CCl)c1c(CC)cccc1CC [Herbicide B, n-(butoxymethyl)-2',6'-diethyl-2-chloroacetanilide, reference compound]
Transplanted rice; 1.0 kg/ha
  yield depression: significant yield depression
Transplanted rice; 5 DAT, 1.0 kg/ha
  Yield (% of Hand-weeded Check): 95%
Transplanted rice; 5 DAT, 1.5 kg/ha
  Yield (% of Hand-weeded Check): 100%
Transplanted rice; 5 DAT, 3.0 kg/ha
  Yield (% of Hand-weeded Check): 99%
Transplanted rice; 10 DAT, 1.0 kg/ha
  Yield (% of Hand-weeded Check): 95%
Transplanted rice; 10 DAT, 1.5 kg/ha
  Yield (% of Hand-weeded Check): 97%
Transplanted rice; 10 DAT, 3.0 kg/ha
  Yield (% of Hand-weeded Check): 100%
Ce (Cyperus esculentus)
  resistance of Ce: resists
Aj (Aneiliema japonica); 5 DAT, 1.0 kg/ha
  % Weed Control (Aj): 79%
Aj (Aneiliema japonica); 5 DAT, 1.5 kg/ha
  % Weed Control (Aj): 76%
Aj (Aneiliema japonica); 5 DAT, 3.0 kg/ha
  % Weed Control (Aj): 85%
Aj (Aneiliema japonica); 10 DAT, 1.0 kg/ha
  % Weed Control (Aj): 58%
Aj (Aneiliema japonica); 10 DAT, 1.5 kg/ha
  % Weed Control (Aj): 77%
Aj (Aneiliema japonica); 10 DAT, 3.0 kg/ha
  % Weed Control (Aj): 78%
Ci (Cyperus iria); 5 DAT, 1.0 kg/ha
  % Weed Control (Ci): 98%
Ci (Cyperus iria); 5 DAT, 1.5 kg/ha
  % Weed Control (Ci): 97%
Ci (Cyperus iria); 5 DAT, 3.0 kg/ha
  % Weed Control (Ci): 99%
Ci (Cyperus iria); 10 DAT, 1.0 kg/ha
  % Weed Control (Ci): 54%
Ci (Cyperus iria); 10 DAT, 1.5 kg/ha
  % Weed Control (Ci): 100%
Ci (Cyperus iria); 10 DAT, 3.0 kg/ha
  % Weed Control (Ci): 93%
[1]; [4]
  % Weed Control, Avg.: 93%
[1]; [5]
  % Weed Control, Avg.: 86%
[2]; [4]
  Yield % of H.W.C.: 99%
[2]; [5]
  Yield % of H.W.C.: 92%
[3]; 5 DAT, 1.0 kg/ha
  Crop Injury (%): 0%
[3]; 5 DAT, 1.5 kg/ha
  Crop Injury (%): 0%
[3]; 5 DAT, 3.0 kg/ha
  Crop Injury (%): 0%
[3]; 14 DAT, 1.0 kg/ha
  Crop Injury (%): 0%
[3]; 14 DAT, 1.5 kg/ha
  Crop Injury (%): 0%
[3]; 14 DAT, 3.0 kg/ha
  Crop Injury (%): 0%
Echinochloa crusgalli; 4 DAT, 1.0 kg/ha
  % Weed Control (Echinochloa crusgalli): 65%
Echinochloa crusgalli; 4 DAT, 1.5 kg/ha
  % Weed Control (Echinochloa crusgalli): 92%
Echinochloa crusgalli; 4 DAT, 3.0 kg/ha
  % Weed Control (Echinochloa crusgalli): 97%
Echinochloa crusgalli; 10 DAT, 1.0 kg/ha
  % Weed Control (Echinochloa crusgalli): 77%
Echinochloa crusgalli; 10 DAT, 1.5 kg/ha
  % Weed Control (Echinochloa crusgalli): 78%
Echinochloa crusgalli; 10 DAT, 3.0 kg/ha
  % Weed Control (Echinochloa crusgalli): 98%
Cyperus difformis; 4 DAT, 1.0 kg/ha
  % Weed Control (Cyperus difformis): 100%
Cyperus difformis; 4 DAT, 1.5 kg/ha
  % Weed Control (Cyperus difformis): 100%
Cyperus difformis; 4 DAT, 3.0 kg/ha
  % Weed Control (Cyperus difformis): 100%
Cyperus difformis; 10 DAT, 1.0 kg/ha
  % Weed Control (Cyperus difformis): 100%
Cyperus difformis; 10 DAT, 1.5 kg/ha
  % Weed Control (Cyperus difformis): 100%
Cyperus difformis; 10 DAT, 3.0 kg/ha
  % Weed Control (Cyperus difformis): 100%

## CCCCOCN(C(=O)CCl)c1c(C)cccc1C(C)(C)C [Herbicide A, n-(butoxymethyl)-6'-tert-butyl-2-chloro-o-acetotoluidide]
Transplanted rice; in vivo
  Yield (% of Hand-weeded Check): 102% and 101% and 100% and 98% and 99%
Ce (Cyperus esculentus)
  resistance of Ce: resistant
Aj (Aneiliema japonica); 5 DAT, 1.0 kg/ha
  % Weed Control (Aj): 81%
Aj (Aneiliema japonica); 5 DAT, 2.0 kg/ha
  % Weed Control (Aj): 86%
Aj (Aneiliema japonica); 5 DAT, .25 kg/ha
  % Weed Control (Aj): 66%
Aj (Aneiliema japonica); 5 DAT, .5 kg/ha
  % Weed Control (Aj): 84%
Aj (Aneiliema japonica); 10 DAT, 1.0 kg/ha
  % Weed Control (Aj): 79%
Aj (Aneiliema japonica); 10 DAT, 2.0 kg/ha
  % Weed Control (Aj): 88%
Aj (Aneiliema japonica); 10 DAT, .25 kg/ha
  % Weed Control (Aj): 73%
Aj (Aneiliema japonica); 10 DAT, .5 kg/ha
  % Weed Control (Aj): 79%
Ci (Cyperus iria); 5 DAT, 1.0 kg/ha
  % Weed Control (Ci): 100%
Ci (Cyperus iria); 5 DAT, 2.0 kg/ha
  % Weed Control (Ci): 95%
Ci (Cyperus iria); 5 DAT, .25 kg/ha
  % Weed Control (Ci): 85%
Ci (Cyperus iria); 5 DAT, .5 kg/ha
  % Weed Control (Ci): 95%
Ci (Cyperus iria); 10 DAT, 1.0 kg/ha
  % Weed Control (Ci): 97%
Ci (Cyperus iria); 10 DAT, 2.0 kg/ha
  % Weed Control (Ci): 93%
Ci (Cyperus iria); 10 DAT, .25 kg/ha
  % Weed Control (Ci): 74%
Ci (Cyperus iria); 10 DAT, .5 kg/ha
  % Weed Control (Ci): 98%
[1]; 0.25 kg/ha, 2 DAT, Ec, Ann. Cyp, Obw and average, ordinary and infant
  weed control vs Herbicide B at 1.5 kg/ha 7 DAT: equal to or superior
[1]; 1.0 kg/ha, 15 DAT, infant seedlings
  % Weed Control, Avg.: 90%
[1]; 1.0 kg/ha, 15 DAT, ordinary seedlings
  % Weed Control, Avg.: 90%
[1]; .25 kg/ha, 2 DAT, infant seedlings
  % Weed Control, Avg.: 93%
[1]; .25 kg/ha, 2 DAT, ordinary seedlings
  % Weed Control, Avg.: 92%
[1]; .5 kg/ha, 7 DAT, infant seedlings
  % Weed Control, Avg.: 81%
[1]; .5 kg/ha, 7 DAT, ordinary seedlings
  % Weed Control, Avg.: 84%
[1]; average weed control, 7 DAT
  fold more active than Herbicide B: at least 3 fold
[2]; in vivo
  Yield % of H.W.C.: 97% and 95% and 96% and 98% and 99% and 102%
  yields vs Herbicide B at 1.5 kg/ha 7 DAT: essentially the same
[3]; 5 DAT, 1.0 kg/ha
  Crop Injury (%): 0%
[3]; 5 DAT, 2.0 kg/ha
  Crop Injury (%): 60%
[3]; 5 DAT, .25 kg/ha
  Crop Injury (%): 0%
[3]; 5 DAT, .5 kg/ha
  Crop Injury (%): 0%
[3]; 14 DAT, 1.0 kg/ha
  Crop Injury (%): 0%
[3]; 14 DAT, 2.0 kg/ha
  Crop Injury (%): 30%
[3]; 14 DAT, .25 kg/ha
  Crop Injury (%): 0%
[3]; 14 DAT, .5 kg/ha
  Crop Injury (%): 0%
Echinochloa crusgalli; 4 DAT, 1.0 kg/ha
  % Weed Control (Echinochloa crusgalli): 100%
Echinochloa crusgalli; 4 DAT, 2.0 kg/ha
  % Weed Control (Echinochloa crusgalli): 100%
Echinochloa crusgalli; 4 DAT, .25 kg/ha
  % Weed Control (Echinochloa crusgalli): 85%
Echinochloa crusgalli; 4 DAT, .5 kg/ha
  % Weed Control (Echinochloa crusgalli): 98%
Echinochloa crusgalli; 10 DAT, 1.0 kg/ha
  % Weed Control (Echinochloa crusgalli): 100%
Echinochloa crusgalli; 10 DAT, 2.0 kg/ha
  % Weed Control (Echinochloa crusgalli): 100%
Echinochloa crusgalli; 10 DAT, .25 kg/ha
  % Weed Control (Echinochloa crusgalli): 65%
Echinochloa crusgalli; 10 DAT, .5 kg/ha
  % Weed Control (Echinochloa crusgalli): 95%
Cyperus difformis; 4 DAT, 1.0 kg/ha
  % Weed Control (Cyperus difformis): 100%
Cyperus difformis; 4 DAT, 2.0 kg/ha
  % Weed Control (Cyperus difformis): 100%
Cyperus difformis; 4 DAT, .25 kg/ha
  % Weed Control (Cyperus difformis): 100%
Cyperus difformis; 4 DAT, .5 kg/ha
  % Weed Control (Cyperus difformis): 100%
Cyperus difformis; 10 DAT, 1.0 kg/ha
  % Weed Control (Cyperus difformis): 100%
Cyperus difformis; 10 DAT, 2.0 kg/ha
  % Weed Control (Cyperus difformis): 100%
Cyperus difformis; 10 DAT, .25 kg/ha
  % Weed Control (Cyperus difformis): 100%
Cyperus difformis; 10 DAT, .5 kg/ha
  % Weed Control (Cyperus difformis): 100%
